Assay results published in patent publication US8304406B2, “Compounds for treating pulmonary hypertension” (Bayer Intellectual Property GmbH, priority 2006, dated 2012).

Tests used:
[1] = tested on: monocrotaline (MCT) induced pulmonary arterial hypertension in rats; test: Pulmonary artery pressure in monocrotaline treated rats; type: in vivo, rat (male Sprague Dawley)
Procedure: Pulmonary Artery Pressure in Monocrotaline Treated Rats
Male Sprague Dawley rats (250-300 g) are treated with monocrotaline 60 mg/kg subcutanously (=day 0). On day 14 after monocrotaline injection treatment the compound/combination to be tested is administered. On day 28 hemodynamic parameters, i.e. right ventricular pressure, systemic blood pressure, heart rate, arterial and venous oxygen saturation are measured and compared with untreated control animals.
The mentioned monocrotaline (MCT) treated rats are randomized to receive example 14 [4-(4-chlorophenylamino)-7-(2-methylaminocarbonyl-4-pyridylmethoxy)furo-[2,3-d]pyridazine] 10 mg/kg or vehicle by gavage once daily after the onset of moderate pulmonary arterial hypertension starting 14 days after the injection of MCT until the final hemodynamic measurement on day 28. In animals with MCT induced pulmonary arterial hypertension treatment with example 14 markedly decreases right ventricular systolic pressure, compared to vehicle treated animals (control: 25±0.56 mmHg; example 14: 42.04±3.21 mmHg vs. placebo: 71.02±5.38 mmHg) (mean±SEM). This effect of example 14 is paralleled by an inhibition of right ventricular hypertrophy (right ventricle/left ventricle+septum ratio control: 0.26±0.01; example 14: 0.32±0.02 vs. placebo: 0.54±0.04).

CNC(=O)c1cc(COc2nnc(Nc3ccc(Cl)cc3)c3ccoc23)ccn1 [Example 14, 4-(4-chlorophenylamino)-7-(2-methylaminocarbonyl-4-pyridylmethoxy)furo-[2,3-d]pyridazine]
right ventricle/left ventricle+septum ratio (right ventricular hypertrophy) ([1]; 10 mg/kg by gavage once daily from day 14 to day 28, day 28, control 0.26±0.01, placebo 0.54±0.04): 0.32±0.02 | right ventricular systolic pressure ([1]; 10 mg/kg by gavage once daily from day 14 to day 28, measured day 28, mean±SEM, control 25±0.56, placebo 71.02±5.38): 42.04±3.21 mmHg

NC(=O)c1cc(COc2nnc(Nc3ccc(Cl)cc3)c3ccsc23)ccn1
melting point: 233 °C

Clc1ccc(Nc2nnc(OCc3ccncc3)c3sccc23)cc1
melting point: 203 to 205 °C (dec.)
